According to patent US6787567B2, “Fungicidal active ingredients combinations” (Bayer Aktiengesellschaft, priority 2000, dated 2004):

System: Plasmopara viticola
Experiment: Plasmopara test (grapevine)/protective
Assay type: in vivo, Plasmopara viticola on grapevine
Conditions: protective, evaluation 6 days after inoculation
Procedure: Plasmopara Test (Grapevine)/Protective
Solvent: 49 parts by weight of acetone
Emulsifier: 1 part by weight of alkyl-aryl polyglycol ether
To produce a suitable preparation of active compound, 1 part by weight of active compound or active compound combination is mixed with the stated amounts of solvent and emulsifier, and the concentrate is diluted with water to the desired concentration, or a commercially available formulation of active compound or active compound combination is diluted with water to the desired concentration.
To test for protective activity, young plants are sprayed with the preparation of active compound at the stated application rate. After the spray coating has dried on, the plants are inoculated with an aqueous spore suspension of Plasmopara viticola and then remain in an incubation cabin at approximately 20° C. and 100% relative atmospheric humidity for 1 day. The plants are then placed in a greenhouse at approximately 21° C. and approximately 90% atmospheric humidity for 4 days. The plants are then moistened and then placed in an incubation cabin for 1 day.
Evaluation is carried out 6 days after the inoculation. 0% means an efficacy which corresponds to that of the control, whereas an efficacy of 100% means that no infection is observed.

SMILES	% efficacy (application rate 100 g/ha)	% efficacy (application rate 10 g/ha)
[Cl-].[Cu+2].[Cu+2].[OH-].[OH-].[OH-] [Copper oxychloride (XXXXVIa), copper oxychloride]	26%	–
CON=C(C(=O)NCCc1ccc(OC)c(OC)c1)c1ccc2c(c1)CCCC2 [Ib]	–	66%
